Measurements as given in patent US20230015308A1, “SUBSTITUTED THIAZOLE AROMATIC RING-BASED COMPOUND AND PREPARATION METHOD THEREFOR, HERBICIDAL COMPOSITION AND USE THEREOF” (QINGDAO KINGAGROOT CHEMICAL COMPOUND CO., LTD., priority 2019, published 2023).

Key:
Assay in all cases: Weeding effect in post-emergence stage (greenhouse pot test)
Assay type in all cases: in vivo
Details in all cases: 15 g a.i./ha, 3 weeks after application
Abutilon theophrasti = system: Abutilon theophrasti
From the text: (§1) The activity level criteria for plant damage (i.e., growth control rate) are as follows:
(§2) Level 5: growth control rate is above 85%;
(§3) Level 4: growth control rate is greater than or equal to 60% and less than 85%;
(§4) Level 3: growth control rate is greater than or equal to 40% and less than 60%;
(§5) Level 2: growth control rate is greater than or equal to 20% and less than 40%;
(§6) Level 1: growth control rate is greater than or equal to 5% and less than 20%;
(§7) Level 0: growth control rate is less than 5%.
(§8) The above growth control rates are fresh weight control rates.
(§9) Experiment on weeding effect in post-emergence stage:
(§10) Monocotyledonous and dicotyledonous weed seeds (Descurainia sophia, Capsella bursa-pastoris, Abutilon theophrasti, Galium aparine, Stellaria media, Lithospermum arvense, Rorippa indica, Alopecurus aequalis, Alopecurus japonicus, Beckmannia syzigachne, Sclerochloa dura, Conyza Canadensis, Phleum paniculatum, Veronica didyma Tenore, Eleusine indica, Bromus japonicus, Aegilops tauschii, Phalaris arundinacea, Amaranthus retroflexus, Chenopodium album, Commelina communis, Sonchus arvensis, Convolvulus arvensis, Cirsium setosum, Solanum nigrum, Acalypha australis, Digitaria sanguinalis, Echinochloa crusgalli, Setaria viridis, Setaria glauca, Leptochloa chinensis, Monochoria vaginalis, Sagittaria trifolia, Scirpus juncoides, Cyperus rotundus, Cyperus iria, Cyperus difformis, Fimbristylis, Portulaca oleracea, Xanthium sibiricum, Pharbitis nil) and major crop seeds (wheat, corn, rice, soybean, cotton, oilseed rape, millet, sorghum, potato, sesame, ricinus) were placed in plastic pots filled with soil, then covered with 0.5-2 cm of soil, allowed to grow in a good greenhouse environment. After 2 weeks of sowing, the test plants were treated in the 2-3 leaf stage. The tested compounds of the present invention were respectively dissolved in acetone, then added with Tween 80 and 1.5 liter/ha of emulsifiable concentrate of methyl oleate as synergist, diluted with a certain amount of water to obtain a solution with a certain concentration, and sprayed with a spray tower onto the plants. After the application, the plants were cultured for 3 weeks in the greenhouse, and then the experimental results of the weeding were counted. The doses of the used compounds were 500, 250, 125, 60, 15 g a.i./ha, and the averages were obtained by repeating for three times.

Amaranthus retroflexus = system: Amaranthus retroflexus
From the text: as §1, §2, §3, §4, §5, §6, §7, §8, §9, §10

Galium aparine = system: Galium aparine
From the text: as §1, §2, §3, §4, §5, §6, §7, §8, §9, §10

Digitaria sanguinalis = system: Digitaria sanguinalis
From the text: as §1, §2, §3, §4, §5, §6, §7, §8, §9, §10

Setaria viridis = system: Setaria viridis
From the text: as §1, §2, §3, §4, §5, §6, §7, §8, §9, §10

Beckmannia syzigachne = system: Beckmannia syzigachne
From the text: as §1, §2, §3, §4, §5, §6, §7, §8, §9, §10

Echinochloa crusgalli = system: Echinochloa crusgalli
From the text: as §1, §2, §3, §4, §5, §6, §7, §8, §9, §10

Alopecurus japonicus = system: Alopecurus japonicus
From the text: as §1, §2, §3, §4, §5, §6, §7, §8, §9, §10

Veronica didyma Tenore = system: Veronica didyma Tenore
From the text: as §1, §2, §3, §4, §5, §6, §7, §8, §9, §10

Row | SMILES | Abutilon theophrasti, activity level (fresh weight growth control rate) (Abutilon theophrasti) | Amaranthus retroflexus, activity level (fresh weight growth control rate) (Amaranthus retroflexus) | Galium aparine, activity level (fresh weight growth control rate) (Galium aparine) | Digitaria sanguinalis, activity level (fresh weight growth control rate) (Digitaria sanguinalis) | Setaria viridis, activity level (fresh weight growth control rate) (Setaria viridis) | Beckmannia syzigachne, activity level (fresh weight growth control rate) (Beckmannia syzigachne) | Echinochloa crusgalli, activity level (fresh weight growth control rate) (Echinochloa crusgalli) | Alopecurus japonicus, activity level (fresh weight growth control rate) (Alopecurus japonicus) | Veronica didyma Tenore, activity level (fresh weight growth control rate) (Veronica didyma Tenore)
1 | CCOC(=O)c1cnc(-c2nc(-n3c(=O)cc(C(F)(F)F)n(C)c3=O)c(F)cc2Cl)s1 [1-107] | 5 (Level 5: growth control rate is above 85%) | 5 (Level 5: growth control rate is above 85%) | 5 (Level 5: growth control rate is above 85%) | 5 (Level 5: growth control rate is above 85%) | 5 (Level 5: growth control rate is above 85%) | 5 (Level 5: growth control rate is above 85%) | 5 (Level 5: growth control rate is above 85%) | 5 (Level 5: growth control rate is above 85%) | 5 (Level 5: growth control rate is above 85%)
2 | CCOC(=O)c1cnc(-c2cc(-n3c(=O)n(C)c(=S)n(C)c3=O)c(F)cc2Cl)s1 [1-113] | 5 (Level 5: growth control rate is above 85%) | 5 (Level 5: growth control rate is above 85%) | 5 (Level 5: growth control rate is above 85%) | 4 (Level 4: growth control rate is greater than or equal to 60% and less than 85%) | 5 (Level 5: growth control rate is above 85%) | 4 (Level 4: growth control rate is greater than or equal to 60% and less than 85%) | 5 (Level 5: growth control rate is above 85%) | 4 (Level 4: growth control rate is greater than or equal to 60% and less than 85%) | 5 (Level 5: growth control rate is above 85%)
3 | CCOC(=O)c1cnc(-c2nc(-n3c(=O)n(C)c(=S)n(C)c3=O)c(F)cc2Cl)s1 [1-123] | 5 (Level 5: growth control rate is above 85%) | 5 (Level 5: growth control rate is above 85%) | 5 (Level 5: growth control rate is above 85%) | 5 (Level 5: growth control rate is above 85%) | 5 (Level 5: growth control rate is above 85%) | 5 (Level 5: growth control rate is above 85%) | 5 (Level 5: growth control rate is above 85%) | 5 (Level 5: growth control rate is above 85%) | 5 (Level 5: growth control rate is above 85%)
